# Reference: patent publication US20140079836A1, “METHODS AND COMPOSITIONS FOR ALTERING HEALTH, WELLBEING, AND LIFESPAN” (LifeSpan Extension, LLC, priority 2008, published 2014)
# Test system: entire human genome (gene expression profile)
# Test: Agilent whole human genome array, skin fibroblasts AG07999, antioxidant with or without UV
# Format: cell-based
# Protocol: Cell cultures: A human skin fibroblast cell culture was obtained through the Coriell Cell Repository from the National Institute on Aging Cell Repository. […] Culture media: Cells were grown in Minimal Essential Medium supplemented with 10% fetal bovine serum, 2 mM L-glutamine, 2 mM Glutamax I. […] All cultures were incubated at 37° C. with 5% CO2 in a humidified chamber. […] On Day 5 after 24 hours of exposure to test conditions, the cells were isolated and the RNA isolated using the RT^2q PCR-grade RNA isolation kit (Superarray Bioscience Corporation). […] Analysis of Agilent Whole Human Genome Arrays: RNA taken from both samples was sent to Cogenics, Inc. Morrisville, N.C. Cogenics, Inc. is a leading, state-of-the-art, microarray service provider that facilitates and accelerates transcriptome profiling and gene discovery processes for industrial and academic researchers. Cogenics' procedure for processing samples is as follows: RNA samples are received and analyzed by Cogenics, Inc. using rigorous standardized procedures that are designed to ensure quality and chain of custody. Each sample undergoes a thorough quality analysis using an Agilent Bioanalyzer microfluidics device, and is precisely quantified using a Nanodrop-1000 spectro-photometer. When the Agilent Oligonucleotide Microarray Platform is utilized, samples are fluorescently labeled using the Agilent Low-Input Linear Amplification Kit. Upon completion of this process, the labeled cRNA products are assessed using the same processes described above. These labeled samples are then fragmented and hybridized to oligonucleotide microarrays. The microarrays are washed and then scanned using an Agilent DNA Microarray Scanner with Sure Scan technology. Data is extracted from the images produced by the scanner using Agilent's Feature Extraction software. At this point, the scanned image is visually inspected for defects, and the extracted data is statistically analyzed to ensure quality of the assay. Extracted data and images can be loaded into Rosetta Resolver Gene Expression Data Analysis System for in-depth analysis, both from a quality standpoint, as well as to develop biological understanding. […] A table was generated and provided as a tab-delimited text file. This file will contain the log ratio, fold-change, log ratio p-value, etc. for every transcript measured by the microarray. Using Rosetta Resolver, a single ratio comparison was compiled based on the results of the two fluorophore reversal hybridization performed in the context of this project. The ratios were calculated such that the Tx sample was in the numerator and the UnTx sample was in the denominator. A table was generated, saved as tab-delimited text files, and is provided on the DVD that accompanied this report in the “Objective—1” subdirectory or the “Data_Analysis” directory. These files contain the log ratio, fold-change, log ratio p-value, etc. for every transcript present on the microarray. […] A table for will be generated and provided as a tab-delimited text file. The file will contain the log ratio, fold-change, log ratio p-value, etc. for only the differentially expressed transcripts within the context of the comparison. […] These criteria were applied to the comparison made in Objective 1. A table was generated, saved as tab-delimited text files, and is provided on the DVD that accompanied this report in the “Objective—1” subdirectory or the “Data_Analysis” directory. […] Cell cultures: A human skin fibroblast cell culture (or cultures) will be obtained through the Coriell Cell Repository from the National Institute on Aging Cell Repository. […] Culture media: Cells will be grown in Minimal Essential Medium supplemented with 10% fetal bovine serum, 2 mM L-glutamine, 2 mM Glutamax I.
structure (smiles),measurement,setting,value
"COC1=C(OC)C(=O)C(CCCCCCCCCCO)=C(C)C1=O [Idebenone, 6-(10-hydroxydecyl)-2,3-dimethoxy-5-methyl-1,4-benzoquin-one]",STOML2 Expression,Alone,1.2
same,TAGLN Expression,Alone,−1.2
same,TBXA2R Expression,Alone,−1.1
same,TEP1 Expression,Alone,1.0
same,TERF1 Expression,Alone,−1.0
same,TERT expression,Alone,1.1
same,TFAP2A Expression,Alone,−1.2
same,TFAP2B Expression,Alone,1.0
same,TFAP2C Expression,Alone,−1.1
same,TFRC Expression,Alone,1.1
same,TGFA Expression,Alone,1.0
same,TGFB1 Expression,Alone,1.0
same,TGFBR2 Expression,Alone,−1.3
same,TGM1 Expression,Alone,−1.1
same,TH Expression,Alone,1.6
same,THBS1 Expression,Alone,−1.1
same,TIMP1 Expression,Alone,−1.4
same,TIMP2 Expression,Alone,−1.4
same,TK1 Expression,Alone,1.6
same,TM4SF1 Expression,Alone,−1.1
same,TNF Expression,Alone,1.1
same,TNFRSF1A Expression,Alone,−1.1
same,TNFRSF1B Expression,Alone,−1.8
same,TNFRSF11B Expression,Alone,1.0
same,TOP2A Expression,Alone,1.6
same,TYMS Expression,Alone,1.2
same,UBE2C Expression,Alone,1.5
same,UBE2V1 Expression,Alone,−1.1
same,VEGFC Expression,Alone,1.0
same,XRCC6BP1 Expression,Alone,1.1
same,YWHAZ Expression,Alone,1.0
same,AKT1 Expression,Idebenone + UVB,−1.6
same,ALOX12 Expression,Idebenone + UVB,1.8
same,APOE Expression,Idebenone + UVB,−1.2
same,ARG2 Expression,Idebenone + UVB,1.2
same,ATOX1 Expression,Idebenone + UVB,−1.0
same,CAMK1 Expression,Idebenone + UVB,−1.7
same,CAT Expression,Idebenone + UVB,−1.3
same,CCNA1 Expression,Idebenone + UVB,1.0
same,CCS Expression,Idebenone + UVB,−1.2
same,CDKN1A Expression,Idebenone + UVB,−1.1
same,CYBA Expression,Idebenone + UVB,−1.2
same,CYGB Expression,Idebenone + UVB,−1.4
same,DDAH2 Expression,Idebenone + UVB,1.0
same,DLG4 Expression,Idebenone + UVB,−1.0
same,DNCL1 Expression,Idebenone + UVB,1.0
same,DND1 Expression,Idebenone + UVB,−1.0
same,DUOX1 Expression,Idebenone + UVB,1.2
same,DUOX2 Expression,Idebenone + UVB,2.0
same,DUSP1 Expression,Idebenone + UVB,1.2
same,EGFR Expression,Idebenone + UVB,−1.0
same,EPX Expression,Idebenone + UVB,−2.2
same,FOXM1 Expression,Idebenone + UVB,−1.5
same,GCH1 Expression,Idebenone + UVB,−1.7
same,GCHFR Expression,Idebenone + UVB,1.0
same,GLA Expression,Idebenone + UVB,1.0
same,GLRX2 Expression,Idebenone + UVB,1.0
same,GPR156 Expression,Idebenone + UVB,1.3
same,GPX1 Expression,Idebenone + UVB,−1.1
same,GPX2 Expression,Idebenone + UVB,−1.2
same,GPX3 Expression,Idebenone + UVB,−1.2
same,GPX4 Expression,Idebenone + UVB,−1.1
same,GPX5 Expression,Idebenone + UVB,1.4
same,GRIN2D Expression,Idebenone + UVB,1.1
same,GSS Expression,Idebenone + UVB,−1.1
same,HSP90AB1 Expression,Idebenone + UVB,−1.3
same,IL8 Expression,Idebenone + UVB,1.0
same,IL10 Expression,Idebenone + UVB,1.1
same,INS Expression,Idebenone + UVB,1.1
same,JUN Expression,Idebenone + UVB,−1.1
same,KRT1 Expression,Idebenone + UVB,1.0
same,LPO Expression,Idebenone + UVB,1.1
same,MBL2 Expression,Idebenone + UVB,1.0
same,MPO Expression,Idebenone + UVB,1.0
same,MSRA Expression,Idebenone + UVB,1.2
same,MT3 Expression,Idebenone + UVB,1.1
same,MTL5 Expression,Idebenone + UVB,−1.1
same,MYB Expression,Idebenone + UVB,1.0
same,NCF1 Expression,Idebenone + UVB,−1.2
same,NCF2 Expression,Idebenone + UVB,1.6
same,NME5 Expression,Idebenone + UVB,1.2
same,NOS1 Expression,Idebenone + UVB,1.2
same,NOS2A Expression,Idebenone + UVB,1.1
same,NOS3 Expression,Idebenone + UVB,−1.0
same,NOSIP Expression,Idebenone + UVB,−1.2
same,NOSTRIN Expression,Idebenone + UVB,1.0
same,NOX5 Expression,Idebenone + UVB,−1.2
same,NQO1 Expression,Idebenone + UVB,−1.2
same,NRF1 Expression,Idebenone + UVB,−1.4
same,NUDT1 Expression,Idebenone + UVB,−1.1
same,OXR1 Expression,Idebenone + UVB,1.1
same,PGC Expression,Idebenone + UVB,1.2
same,PKAR1B Expression,Idebenone + UVB,−1.0
same,PNKP Expression,Idebenone + UVB,−1.3
same,PP3CA Expression,Idebenone + UVB,1.1
same,PRDX2 Expression,Idebenone + UVB,1.0
same,PRDX6 Expression,Idebenone + UVB,1.1
same,PREX1 Expression,Idebenone + UVB,−1.1
same,PRG3 Expression,Idebenone + UVB,−1.0
same,PRKCA Expression,Idebenone + UVB,−1.1
same,PRNP Expression,Idebenone + UVB,1.0
same,RNF7 Expression,Idebenone + UVB,−1.0
same,SCARA3 Expression,Idebenone + UVB,−1.0
same,SCRT2 Expression,Idebenone + UVB,1.3
same,SELS Expression,Idebenone + UVB,1.0
same,SEPP1 Expression,Idebenone + UVB,1.0
same,SGK2 Expression,Idebenone + UVB,−1.2
same,SIRT2 Expression,Idebenone + UVB,−1.1
same,SOD1 Expression,Idebenone + UVB,−1.1
same,SOD2 Expression,Idebenone + UVB,1.0
same,SOD3 Expression,Idebenone + UVB,1.1
same,SRXN1 Expression,Idebenone + UVB,−1.1
